The source of these data is patent US11013235B2 (priority 2015, dated 2021).

What all share (format): in vivo
Assay [1] has as its system Candidatus 'Liberibacter asiaticus'. To be noted: spraying every 15 days, 12 months after treatment, Citrus sinensis with HLB.
In a further assay the test system is Nocardia sp. Kind of assay: Control of Nocardia sp disease in tobacco (N-Nt). To be noted: 1 μM spraying every 24 hours for one week, water control 58. In a few lines:
(§1)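 Each group of fifty plants is inoculated with the pathogen and afterwards sprayed with 1 μM compound once every 24 hours over one week. Water-sprayed plants serve as the control. Disease is scored as mortality (Nocardia), symptomatic leaf percentage (Alternaria) or lesion size by diameter (Botrytis).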

The subject of the next assay is Alternaria solani. The experiment in a line: Control of Alternaria solani disease in tomato (As-SI). Conditions: 1 μM spraying every 24 hours for one week, water control 68. In a few lines:
as §1

For assay [2], the system named is Botrytis cinerea. Kind of assay: Control of Botrytis cinerea disease in tomato (Bc-SI). To be noted: 1 μM spraying every 24 hours for one week, water control 7.4. An outline of the steps:
as §1

The subject of assay [3] is Botrytis cinerea. Kind of assay: Control of Botrytis cinerea disease in Arabidopsis (Bc-At). Conditions: 1 μM spraying every 24 hours for one week, water control 8.7. In a few lines: as §1
Assay [4] has as its system Botrytis cinerea. The experiment in a line: Control of Botrytis cinerea disease in tobacco (Bc-Nt). Conditions: 1 μM spraying every 24 hours for one week, water control 6.7. An outline of the steps:
as §1

Another assay concerns Radopholus similis. The experiment in a line: Nematode control, nodules per plant: Radopholus similis. To be noted: 1 μM foliar application every 5 days, evaluation 35 days after, control 45. An outline of the steps:
(§2)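 Each compound was dissolved in ethanol, then diluted with water to 1 μM. Only the leaves were sprayed, with applications repeated every 5 days on ten plants per treatment. After 35 days, nodules per plant were quantified.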

Assay [5] deals with Rhizoctonia solani. The experiment in a line: Control of Rhizoctonia solani disease in tobacco (Rs-Nt). Conditions: 1 μM spraying every 24 hours for one week, water control 87.
A further assay relates to Pratylenchus coffeae. Kind of assay: Nematode control, nodules per plant: Pratylenchus coffeae. To be noted: 1 μM foliar application every 5 days, evaluation 35 days after, control 42. In a few lines: as §2
A further assay has as its system Phytophthora parasitica. The experiment in a line: Control of Phytophthora parasitica disease in tobacco (Pp-Nt). To be noted: 1 μM spraying every 24 hours for one week, water control 91.
Assay [6] relates to Rhizoctonia solani. Kind of assay: Control of Rhizoctonia solani disease in tomato (Rs-SI). To be noted: 1 μM spraying every 24 hours for one week, water control 96.
The next assay relates to Meloidogyne incognita. Kind of assay: Nematode control, nodules per plant: Meloidogyne incognita. To be noted: 1 μM foliar application every 5 days, evaluation 35 days after, control 34. In a few lines: as §2

Molecules are shown by their SMILES. Like-named read-outs stand apart in the source and are kept apart here.

For the molecule `O=C(c1cnc(N2CCN(C3CCCCC3)CC2)nc1)N1CC2CC(O)C(O)CC2C1` (stereo not shown) [IIIE, 2-{[2-(4-cyclohexylpiperazin-1-yl)pyrimidin-5-yl]carbonyl}-octahydro-1H-isoindole-5,6-diol], the “Titers of the bacterium” value in assay [1] (0.001 μM) is 657 copies per reaction; in [1] (0.01 μM), 7 copies per reaction; in [1] (1 μM) it was 0 copies per reaction; in assay [1] (5 μM), 67 copies per reaction; in [1] (10 μM), 8653 copies per reaction. In addition, in the assay with Nocardia sp, the “N-Nt: percentage of mortality” value is 0%. The “As-SI: percentage of leaves with the disease symptoms” value (from here on “As-SI: percentage of leaves”) with Alternaria solani came to 7%. Besides, in the assay on Botrytis cinerea [2], the “Bc-SI: mean of the diameter of the lesion” value (“Bc-SI: mean” below) is reported as 0.8 mm. Moreover, the “Bc-At: mean of the diameter of the lesion” value (shortened to “Bc-At: mean”) with Botrytis cinerea [3] stood at 0.5 mm. The “Bc-Nt: mean of the diameter of the lesion” value (“Bc-Nt: mean” for short) with Botrytis cinerea [4] is 0.9 mm. Besides, in the assay with Radopholus similis, the “Rs: number of nodules per plant” value worked out at 0. For the same molecule, in the assay on Rhizoctonia solani [5], the “Rs-Nt: percentage of mortality” value stood at 0%. Further, the “Pc: number of nodules per plant” value in the assay on Pratylenchus coffeae was 0. Also, the “Pp-Nt: percentage of mortality” value in the assay with Phytophthora parasitica worked out at 0%. For the same molecule, the “Rs-SI: percentage of mortality” value with Rhizoctonia solani [6] worked out at 0%. Also, the “Mi: number of nodules per plant” value in the assay with Meloidogyne incognita came to 0.
As to `Cc1nc(N2CCN(C3CCCCC3)CC2)ncc1C(=O)N1CC2CC(O)C(O)CC2C1` (stereo not shown) [IIIF, 2-{[2-(4-cyclohexylpiperazin-1-yl)-4-methylpyrimidin-5-yl]carbonyl}-octahydro-1H-isoindole-5,6-diol], the “Titers of the bacterium” value in [1] (0.001 μM) is 658 copies per reaction; in assay [1] (0.01 μM), 5 copies per reaction; in assay [1] (1 μM) it was 4 copies per reaction; in assay [1] (5 μM), 68 copies per reaction; in assay [1] (10 μM) it was 3654 copies per reaction. Further, the “N-Nt: percentage of mortality” value in the assay on Nocardia sp came to 0%. In addition, the “As-SI: percentage of leaves” value with Alternaria solani came to 5%. Further, the “Bc-SI: mean” value with Botrytis cinerea [2] is 2.5 mm. Moreover, the “Bc-At: mean” value in the assay on Botrytis cinerea [3] was determined as 1.5 mm. For the same molecule, in the assay with Botrytis cinerea [4], the “Bc-Nt: mean” value amounted to 1.5 mm. Also, in the assay on Radopholus similis, the “Rs: number of nodules per plant” value is 0. The “Rs-Nt: percentage of mortality” value in the assay on Rhizoctonia solani [5] was 0%. Moreover, in the assay with Pratylenchus coffeae, the “Pc: number of nodules per plant” value is recorded as 0. Also, in the assay with Phytophthora parasitica, the “Pp-Nt: percentage of mortality” value turned out to be 0%. In the assay on Rhizoctonia solani [6], the “Rs-SI: percentage of mortality” value came out at 1%. Also, in the assay on Meloidogyne incognita, the “Mi: number of nodules per plant” value worked out at 0.
Take `O=C(c1cnc(N2CCN(C3CCCC3)CC2)nc1)N1CC2CC(O)C(O)CC2C1` (stereo not shown) [IIIG, 2-{[2-(4-cyclopentylpiperazin-1-yl)pyrimidin-5-yl]carbonyl}-octahydro-1H-isoindole-5,6-diol]: the “Titers of the bacterium” value came to 756 copies per reaction in assay [1] (0.001 μM); 12 copies per reaction in assay [1] (0.01 μM); 5 copies per reaction in assay [1] (1 μM); 76 copies per reaction in assay [1] (5 μM); 9654 copies per reaction in assay [1] (10 μM). For the same molecule, the “N-Nt: percentage of mortality” value with Nocardia sp was determined as 0%. In the assay with Alternaria solani, the “As-SI: percentage of leaves” value came to 7%. Moreover, the “Bc-SI: mean” value with Botrytis cinerea [2] is listed as 0.8 mm. In the assay on Botrytis cinerea [3], the “Bc-At: mean” value was 2.4 mm. In addition, the “Bc-Nt: mean” value with Botrytis cinerea [4] came out at 1.5 mm. The “Rs: number of nodules per plant” value in the assay with Radopholus similis came out at 3. Further, the “Rs-Nt: percentage of mortality” value in the assay on Rhizoctonia solani [5] amounted to 0%. Further, the “Pc: number of nodules per plant” value in the assay with Pratylenchus coffeae is recorded as 0. The “Pp-Nt: percentage of mortality” value with Phytophthora parasitica is reported as 3%. Besides, the “Rs-SI: percentage of mortality” value with Rhizoctonia solani [6] is reported as 1%. Also, the “Mi: number of nodules per plant” value with Meloidogyne incognita was 0.
For `Cc1nc(N2CCN(C3CCCC3)CC2)ncc1C(=O)N1CC2CC(O)C(O)CC2C1` (stereo not shown) [IIIH, 2-{[2-(4-cyclopentylpiperazin-1-yl)-4-methylpyrimidin-5-yl]carbonyl)-octahydro-1H-isoindole-5,6-diol], the “Titers of the bacterium” value in assay [1] (0.001 μM) was 456 copies per reaction; in assay [1] (0.01 μM), 15 copies per reaction; in assay [1] (1 μM) it was 6 copies per reaction; in assay [1] (5 μM) it was 56 copies per reaction; in assay [1] (10 μM), 3657 copies per reaction. Also, the “N-Nt: percentage of mortality” value in the assay on Nocardia sp was found to be 1%. Further, in the assay with Alternaria solani, the “As-SI: percentage of leaves” value was determined as 1%. Further, in the assay on Botrytis cinerea [2], the “Bc-SI: mean” value came out at 1.2 mm. The “Bc-At: mean” value in the assay with Botrytis cinerea [3] worked out at 0.7 mm. In addition, in the assay on Botrytis cinerea [4], the “Bc-Nt: mean” value stood at 0.9 mm. The “Rs: number of nodules per plant” value with Radopholus similis was determined as 14. The “Rs-Nt: percentage of mortality” value in the assay on Rhizoctonia solani [5] stood at 2%. The “Pc: number of nodules per plant” value in the assay with Pratylenchus coffeae came to 16. Moreover, in the assay on Phytophthora parasitica, the “Pp-Nt: percentage of mortality” value turned out to be 1%. Also, in the assay with Rhizoctonia solani [6], the “Rs-SI: percentage of mortality” value was determined as 3%. Moreover, the “Mi: number of nodules per plant” value in the assay on Meloidogyne incognita worked out at 2.
In the case of `O=C(c1cnc(N2CCNCC2)nc1)N1CC2CC(O)C(O)CC2C1` (stereo not shown) [IIII, 2-{[2-(piperazin-1-yl)pyrimidin-5-yl]carbonyl}-octahydro-1H-isoindole-5,6-diol], the “Titers of the bacterium” value was found to be 435 copies per reaction in assay [1] (0.001 μM); 9 copies per reaction in assay [1] (0.01 μM); 8 copies per reaction in assay [1] (1 μM); 45 copies per reaction in [1] (5 μM); 8654 copies per reaction in assay [1] (10 μM). Besides, in the assay on Nocardia sp, the “N-Nt: percentage of mortality” value came to 1%. Besides, the “As-SI: percentage of leaves” value in the assay with Alternaria solani is reported as 2%. Also, in the assay with Botrytis cinerea [2], the “Bc-SI: mean” value stood at 0.8 mm. Also, in the assay with Botrytis cinerea [3], the “Bc-At: mean” value turned out to be 1.2 mm. Besides, the “Bc-Nt: mean” value in the assay on Botrytis cinerea [4] came to 0.3 mm. In addition, the “Rs: number of nodules per plant” value in the assay with Radopholus similis was determined as 2. In addition, the “Rs-Nt: percentage of mortality” value with Rhizoctonia solani [5] amounted to 3%. The “Pc: number of nodules per plant” value in the assay with Pratylenchus coffeae worked out at 12. Besides, in the assay on Phytophthora parasitica, the “Pp-Nt: percentage of mortality” value is recorded as 2%. Moreover, in the assay on Rhizoctonia solani [6], the “Rs-SI: percentage of mortality” value is 2%. Besides, the “Mi: number of nodules per plant” value with Meloidogyne incognita is reported as 3.
In the case of `Cc1nc(N2CCNCC2)ncc1C(=O)N1CC2CC(O)C(O)CC2C1` (stereo not shown) [IIIJ, 2-{[4-methyl-2-(piperazin-1-yl)pyrimidin-5-yl]carbonyl}-octahydro-1H-isoindole-5,6-diol], the “Titers of the bacterium” value in [1] (0.001 μM) is listed as 578 copies per reaction; in [1] (0.01 μM) it was 0 copies per reaction; in assay [1] (1 μM), 7 copies per reaction; in [1] (5 μM) it was 578 copies per reaction; in assay [1] (10 μM) it was 7546 copies per reaction. Also, in the assay with Nocardia sp, the “N-Nt: percentage of mortality” value is recorded as 2%. Besides, the “As-SI: percentage of leaves” value in the assay with Alternaria solani was found to be 3%. The “Bc-SI: mean” value in the assay with Botrytis cinerea [2] is on record as 1.6 mm. In addition, the “Bc-At: mean” value with Botrytis cinerea [3] is 1.1 mm. Further, the “Bc-Nt: mean” value in the assay on Botrytis cinerea [4] was determined as 2.0 mm. Moreover, the “Rs: number of nodules per plant” value in the assay with Radopholus similis is recorded as 12. In the assay on Rhizoctonia solani [5], the “Rs-Nt: percentage of mortality” value was 4%. In addition, the “Pc: number of nodules per plant” value with Pratylenchus coffeae is given as 2. The “Pp-Nt: percentage of mortality” value in the assay with Phytophthora parasitica was determined as 1%. Besides, the “Rs-SI: percentage of mortality” value in the assay with Rhizoctonia solani [6] worked out at 2%. Also, the “Mi: number of nodules per plant” value in the assay on Meloidogyne incognita is 4.
Regarding `O=C(c1cnc(N2CCN(n3cccc3)CC2)nc1)N1CC2CC(O)C(O)CC2C1` (stereo not shown) [IIIK, 2-({2-[4-(1H-pyrrol-1-yl)piperazin-1-yl]pyrimidin-5-yl}carbonyl)-octahydro-1H-isoindole-5,6-diol], the “Titers of the bacterium” value in assay [1] (0.001 μM) is 635 copies per reaction; in assay [1] (0.01 μM), 0 copies per reaction; in [1] (1 μM), 3 copies per reaction; in assay [1] (5 μM), 65 copies per reaction; in [1] (10 μM) it was 8420 copies per reaction. Also, the “N-Nt: percentage of mortality” value in the assay on Nocardia sp came to 1%. Besides, the “As-SI: percentage of leaves” value in the assay on Alternaria solani is listed as 8%. For the same molecule, in the assay on Botrytis cinerea [2], the “Bc-SI: mean” value came to 0.8 mm. For the same molecule, the “Bc-At: mean” value in the assay with Botrytis cinerea [3] was 0.5 mm. In addition, the “Bc-Nt: mean” value in the assay on Botrytis cinerea [4] turned out to be 0.9 mm. The “Rs: number of nodules per plant” value in the assay on Radopholus similis is 0. Moreover, the “Rs-Nt: percentage of mortality” value with Rhizoctonia solani [5] is on record as 0%. Further, the “Pc: number of nodules per plant” value with Pratylenchus coffeae was 14. Further, the “Pp-Nt: percentage of mortality” value with Phytophthora parasitica came to 0%. For the same molecule, the “Rs-SI: percentage of mortality” value in the assay with Rhizoctonia solani [6] is given as 2%. For the same molecule, the “Mi: number of nodules per plant” value with Meloidogyne incognita is on record as 0.
